This note sets out measurements from ChEMBL document CHEMBL4725370, “Discovery of Proteolysis-Targeting Chimera Molecules that Selectively Degrade the IRAK3 Pseudokinase” (J Med Chem, 2020).

SMILES strings stand for the structures. Activity calls are given as the source filed them. No cut-off for these calls is given here.

For assay [1], the target named is T1, Interleukin-1 receptor-associated kinase 3 (Homo sapiens, UniProt Q9Y616).
T1 sequence (Q9Y616 whole entry): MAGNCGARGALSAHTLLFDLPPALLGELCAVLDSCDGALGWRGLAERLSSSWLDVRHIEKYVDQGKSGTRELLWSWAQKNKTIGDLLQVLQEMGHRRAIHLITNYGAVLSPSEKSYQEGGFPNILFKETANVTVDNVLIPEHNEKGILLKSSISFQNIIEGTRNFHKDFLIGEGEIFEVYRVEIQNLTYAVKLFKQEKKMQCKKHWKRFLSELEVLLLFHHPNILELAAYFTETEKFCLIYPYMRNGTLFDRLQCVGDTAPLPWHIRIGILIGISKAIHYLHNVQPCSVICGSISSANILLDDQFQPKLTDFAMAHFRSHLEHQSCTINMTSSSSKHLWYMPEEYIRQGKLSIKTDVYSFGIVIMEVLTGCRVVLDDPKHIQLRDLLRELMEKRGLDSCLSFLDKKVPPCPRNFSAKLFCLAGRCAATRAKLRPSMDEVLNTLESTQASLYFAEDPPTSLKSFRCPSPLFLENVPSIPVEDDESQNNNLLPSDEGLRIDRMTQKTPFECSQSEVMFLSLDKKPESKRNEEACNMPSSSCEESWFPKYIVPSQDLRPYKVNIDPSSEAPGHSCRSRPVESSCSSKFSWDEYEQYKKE
Nature of the assay: Inhibition of kinase tracer 236 binding to recombinant human full-length GST-tagged IRAK3 expressed in insect cells by Lanthascreen Eu kinase binding assay. In general terms: TR-FRET usually uses a lanthanide donor and a delayed reading to cut background.

The target of assay [2] is Protein cereblon/Interleukin-1 receptor-associated kinase 3 (Homo sapiens, UniProt Q9Y616+Q96SW2). Nature of the assay: Protac activity at CRBN/IRAK3 in LPS-induced human THP1 cells assessed as induction of IRAK3 degradation after 16 hrs by Western blot analysis relative to control. Particulars: THP-1. The class given is cell-based. For orientation: A western blot detects proteins with antibodies after separation by electrophoresis.
Sequence of Protein cereblon/Interleukin-1 receptor-associated kinase 3 (Q96SW2 whole entry, looked up, one chain of several): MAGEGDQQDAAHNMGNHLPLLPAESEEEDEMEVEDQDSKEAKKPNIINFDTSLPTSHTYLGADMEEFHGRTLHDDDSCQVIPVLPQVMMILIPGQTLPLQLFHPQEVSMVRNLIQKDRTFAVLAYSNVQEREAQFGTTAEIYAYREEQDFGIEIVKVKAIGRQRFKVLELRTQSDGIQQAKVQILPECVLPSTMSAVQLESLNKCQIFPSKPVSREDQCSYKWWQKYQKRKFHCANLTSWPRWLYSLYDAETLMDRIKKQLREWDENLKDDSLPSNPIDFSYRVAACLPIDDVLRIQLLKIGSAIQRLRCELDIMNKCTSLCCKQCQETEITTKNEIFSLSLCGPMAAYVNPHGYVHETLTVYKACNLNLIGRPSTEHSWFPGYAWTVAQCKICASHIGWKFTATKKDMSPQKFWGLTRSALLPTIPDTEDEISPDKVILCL

Assay [3] concerns the target NT-3 growth factor receptor (Homo sapiens, UniProt Q16288). As to the kind of experiment: Inhibition of NTRK3 (unknown origin) at 0.1 uM relative to control.
Assay [4] concerns the target Cyclin-dependent kinase 8 (Homo sapiens, UniProt P49336). Nature of the assay: Displacement of polymer supported probe 25 binding to CDK8 in human THP-1 cell lysates preincubated for 45 mins under shaking condition followed by probe addition and measured after 30 mins by mass spectrometry based chemoproteomic analysis. The following applies: read-out: Kd(app). The class given is subcellular.

Assay [5] has as its target Cyclin-dependent kinase 19 (Homo sapiens, UniProt Q9BWU1). Nature of the assay: Displacement of polymer supported probe 25 binding to CDK11 in human THP-1 cell lysates preincubated for 45 mins under shaking condition followed by probe addition and measured after 30 mins by mass spectrometry based chemoproteomic analysis. In kind it is subcellular. Particulars: read-out: Kd(app).

Assay [6] has as its target T2, Serine/threonine-protein kinase haspin (Homo sapiens, UniProt Q8TF76).
T2 sequence (Q8TF76 whole entry): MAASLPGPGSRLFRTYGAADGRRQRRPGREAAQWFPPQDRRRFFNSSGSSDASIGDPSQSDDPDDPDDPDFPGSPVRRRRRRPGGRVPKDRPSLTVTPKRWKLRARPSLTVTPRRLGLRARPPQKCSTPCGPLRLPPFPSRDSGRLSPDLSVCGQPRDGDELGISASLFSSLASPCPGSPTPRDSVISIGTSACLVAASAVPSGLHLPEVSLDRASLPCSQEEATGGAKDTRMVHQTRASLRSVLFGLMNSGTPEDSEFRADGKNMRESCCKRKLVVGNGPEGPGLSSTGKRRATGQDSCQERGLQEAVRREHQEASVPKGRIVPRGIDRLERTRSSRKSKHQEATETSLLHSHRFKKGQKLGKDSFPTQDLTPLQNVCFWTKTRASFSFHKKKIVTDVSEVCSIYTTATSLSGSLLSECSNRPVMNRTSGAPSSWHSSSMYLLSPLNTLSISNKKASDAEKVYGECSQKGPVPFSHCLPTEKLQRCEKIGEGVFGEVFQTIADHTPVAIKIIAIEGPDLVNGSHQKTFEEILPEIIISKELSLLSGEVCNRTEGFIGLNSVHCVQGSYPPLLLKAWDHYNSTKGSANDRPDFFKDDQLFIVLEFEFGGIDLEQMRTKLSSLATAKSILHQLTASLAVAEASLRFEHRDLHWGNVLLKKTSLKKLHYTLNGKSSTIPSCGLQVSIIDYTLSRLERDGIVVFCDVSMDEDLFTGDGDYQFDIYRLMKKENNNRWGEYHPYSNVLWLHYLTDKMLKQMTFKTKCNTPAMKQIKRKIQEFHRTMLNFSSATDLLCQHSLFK
As to the kind of experiment: Displacement of polymer supported probe 25 binding to GSG2 in human THP-1 cell lysates preincubated for 45 mins under shaking condition followed by probe addition and measured after 30 mins by mass spectrometry based chemoproteomic analysis. In kind it is subcellular. Particulars: read-out: Kd(app).

Assay [7] concerns THP-1. Nature of the assay: Selectivity ratio of Kd(app) for displacement of polymer supported probe 25 binding to IRAK1 in human THP-1 cell lysates to Kd(app) for displacement of polymer supported probe 25 binding to IRAK3 in human THP-1 cell lysates.
For assay [8], the target named is Cereblon/Ikaros (Homo sapiens) (UniProt Q96SW2+Q13422). Nature of the assay: Protac activity at CRBN/IKZF1 in LPS-induced human THP1 cells assessed as induction of IKZF1 degradation at 0.1 uM measured after 6 hrs by HPLC-MS based global proteomic analysis. In kind it is cell-based. Particulars: THP-1.

Sequence of Cyclin-dependent kinase 19 (Q9BWU1 whole entry): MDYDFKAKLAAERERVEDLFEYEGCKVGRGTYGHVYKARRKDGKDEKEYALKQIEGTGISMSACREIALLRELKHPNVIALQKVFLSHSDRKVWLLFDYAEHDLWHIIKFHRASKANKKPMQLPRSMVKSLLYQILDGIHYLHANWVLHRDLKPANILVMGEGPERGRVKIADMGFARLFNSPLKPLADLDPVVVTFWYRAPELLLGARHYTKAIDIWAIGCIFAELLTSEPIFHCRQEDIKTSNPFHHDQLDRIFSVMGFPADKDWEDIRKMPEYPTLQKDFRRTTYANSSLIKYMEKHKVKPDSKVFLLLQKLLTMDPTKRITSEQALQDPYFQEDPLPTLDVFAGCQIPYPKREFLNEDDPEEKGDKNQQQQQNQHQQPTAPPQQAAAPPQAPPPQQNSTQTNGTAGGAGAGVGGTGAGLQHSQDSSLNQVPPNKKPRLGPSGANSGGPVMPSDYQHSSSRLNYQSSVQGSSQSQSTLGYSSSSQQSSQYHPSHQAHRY
Sequence of Cyclin-dependent kinase 8 (P49336 whole entry): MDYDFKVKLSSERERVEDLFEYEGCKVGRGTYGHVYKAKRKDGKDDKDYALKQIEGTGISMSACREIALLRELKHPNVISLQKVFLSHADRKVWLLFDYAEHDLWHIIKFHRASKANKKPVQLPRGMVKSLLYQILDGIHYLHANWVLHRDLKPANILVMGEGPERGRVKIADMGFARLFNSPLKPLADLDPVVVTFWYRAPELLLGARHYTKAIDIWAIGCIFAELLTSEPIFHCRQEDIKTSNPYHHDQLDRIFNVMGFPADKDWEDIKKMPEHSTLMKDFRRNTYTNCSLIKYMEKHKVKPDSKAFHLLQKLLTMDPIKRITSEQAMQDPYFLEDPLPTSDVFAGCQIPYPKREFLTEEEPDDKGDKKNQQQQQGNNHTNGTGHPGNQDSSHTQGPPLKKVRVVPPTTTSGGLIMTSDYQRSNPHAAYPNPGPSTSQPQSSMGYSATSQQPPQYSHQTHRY
Sequence of NT-3 growth factor receptor (Q16288 32-839 limits assumed): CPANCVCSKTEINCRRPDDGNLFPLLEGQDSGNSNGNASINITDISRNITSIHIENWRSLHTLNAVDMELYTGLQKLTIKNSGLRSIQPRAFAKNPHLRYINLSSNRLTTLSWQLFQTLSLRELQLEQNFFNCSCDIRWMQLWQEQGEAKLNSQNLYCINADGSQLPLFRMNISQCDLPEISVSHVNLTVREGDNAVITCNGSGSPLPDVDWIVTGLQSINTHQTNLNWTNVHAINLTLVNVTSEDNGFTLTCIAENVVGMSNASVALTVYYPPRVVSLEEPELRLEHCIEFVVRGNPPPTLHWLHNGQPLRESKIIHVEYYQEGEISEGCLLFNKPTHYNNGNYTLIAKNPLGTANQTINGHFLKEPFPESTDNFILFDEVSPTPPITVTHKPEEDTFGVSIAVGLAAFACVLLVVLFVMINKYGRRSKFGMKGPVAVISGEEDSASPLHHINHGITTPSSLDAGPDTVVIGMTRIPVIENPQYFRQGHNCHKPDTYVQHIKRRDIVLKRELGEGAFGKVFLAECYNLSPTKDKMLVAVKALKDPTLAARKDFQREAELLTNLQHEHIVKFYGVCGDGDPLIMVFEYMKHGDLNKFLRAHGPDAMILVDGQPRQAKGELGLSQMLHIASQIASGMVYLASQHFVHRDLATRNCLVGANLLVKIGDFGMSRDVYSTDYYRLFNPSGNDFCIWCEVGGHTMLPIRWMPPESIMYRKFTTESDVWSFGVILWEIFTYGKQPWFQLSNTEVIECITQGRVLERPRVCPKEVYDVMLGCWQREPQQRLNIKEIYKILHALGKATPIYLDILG

One may read the IC50 as the point on the concentration scale where inhibition reaches its midpoint. As a reminder, the Emax is the size of the effect at its maximum, as opposed to the concentration needed. The inhibition is the percentage by which the read-out fell short of the control. As to `CC(C)c1ccn2ncnc(N[C@H]3CC[C@@H](N4CCN(C(=O)CCC(=O)N5CCC(CCN6CCN(c7ccc8c(c7)C(=O)N(C7CCC(=O)NC7=O)C8=O)CC6)CC5)CC4)CC3)c12` (stereo partly drawn), the IC50 in assay [1] was determined as 0.005 µM. Moreover, the Emax in assay [2] was determined as 98%. The inhibition in assay [3] amounted to 60%. Moreover, the results for the Kd in assay [4], in assay [5] and in assay [6] were 1.4 µM, greater than 30 µM and 0.78 µM, respectively. For the same molecule, the Selectivity ratio in assay [7] was 82. In assay [8], the result was inactive.
